In test [1] the target is T1, peroxisome proliferator-activator receptor γ (PPAR γ) (Homo sapiens, UniProt P37231).
T1 sequence (P37231 1-505): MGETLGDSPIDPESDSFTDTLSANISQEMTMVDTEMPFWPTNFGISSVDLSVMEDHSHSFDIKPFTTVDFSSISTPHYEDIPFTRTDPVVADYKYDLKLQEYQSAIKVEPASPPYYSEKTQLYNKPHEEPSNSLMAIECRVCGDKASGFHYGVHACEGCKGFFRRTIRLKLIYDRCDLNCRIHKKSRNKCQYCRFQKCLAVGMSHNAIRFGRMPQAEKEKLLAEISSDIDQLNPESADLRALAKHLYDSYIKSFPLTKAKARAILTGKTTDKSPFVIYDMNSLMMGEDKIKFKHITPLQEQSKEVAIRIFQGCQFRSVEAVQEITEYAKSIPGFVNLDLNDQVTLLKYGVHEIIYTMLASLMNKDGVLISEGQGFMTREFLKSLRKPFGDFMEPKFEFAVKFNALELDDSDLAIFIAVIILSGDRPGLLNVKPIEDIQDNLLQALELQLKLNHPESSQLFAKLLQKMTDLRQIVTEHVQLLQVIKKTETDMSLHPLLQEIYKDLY
To be noted: literature studies; cited from earlier work.

Test [2] deals with CD34+ cells. As to the kind of experiment: CD34+ cell proliferation after hypoxia 24 h then normoxia 6 days. The format is cell-based, human. Particulars: LPA 100 μM; 24 h hypoxia + 6 days normoxia (7 days period). The source says: LPA is highly mitogenic for quiescent cells. The mitogenic action of LPA involves the activation of a pertussis toxin-insensitive G protein with subsequent Ca^2+ mobilization and stimulation of protein kinase C, release of arachidonic acid in a GTP-dependent manner, and activation of a pertussis toxinsensitive Gi protein mediating inhibition of adenylate cyclase (van Corven, E. J., et al., Lysophosphatidate-induced cell proliferation: identification and dissection of signaling pathways mediated by G proteins. Cell, 1989. 59(1): p. 45-54). To determine whether LPA can induce the proliferation of CD34+ cells, a suspension of untreated or LPA-treated cells (2×10^^5 cells in 200 μL of X-vivo medium) was exposed to hypoxia for 24 h and then cultured under normoxia conditions for 6 additional days. LPA-treated cells increased their number approximately 3-fold over the 7 days period while untreated cells decreased to half of their initial number (FIG. 3A).

The test system of test [3] is CD34+ cells. As to the kind of experiment: Cytokine secretion by CD34+ cells (Bio-Plex cytokine bead array). The test is classed as cell-based, human. Particulars: LPA 100 μM; hypoxia, serum free, 24 h. On the procedure: In an embodiment, cell culture supernatants were evaluated for the presence and concentrations of cytokines using a Bio-Plex Pro Human Cytokine 17-Plex Panel Assay (preferably, Bio-Rad, Hercules, Calif., USA), according to manufacturer's instructions, in a Bio-Plex 200 System (Bio-Rad, www.bio-rad.com). The human Group I 17-Plex Panel consisted of the following analytes: interleukin-1β (IL-1β), IL-2, IL-4, IL-5, IL-6, IL-7, IL-8; IL-10, IL-12(p70), IL-13, IL-17, granulocyte colony-stimulating factor (G-CSF), granulocyte/macrophage colony-stimulating factor (GM-CSF), interferon-γ (IFN-γ), monocyte chemotactic protein (monocyte chemotactic activating factor [MCP-1 (MCAF)], macrophage inflammatory protein-β (MIP-1 β) and tumor necrosis factor-α (TNF-α). Supernatant media samples were collected, centrifuged to remove precipitates and frozen. A standard range of 0.2 to 3,200 pg/mL was used. Samples and controls were run in triplicate, standards and blanks in duplicate.
To determine the effect of LPA in the release of signaling cytokines and growth factors by CD34+ cells, was used a cytokine bead array. The cells were incubated in serum free medium X-Vivo for 24 h under normoxia or hypoxia conditions, either in the presence or absence of LPA (100 μM). Untreated CD34+ cells in normoxia express high levels (>100 pg/mL) of IL-8 and MIP-1b, medium levels (between 100 and 1 pg/mL) of IL-6, TNF-α and GM-CSF, and low levels (<1 pg/mL) of IL-1β, IL-4 and IL-17 (FIG. 5C).

Take lysophosphatidic acid [LPA]: the “affinity for PPARγ” value in test [1] is reported as “high affinity”. Besides, in test [2], the “increase in cell number” value is given as “approximately 3 fold”. For the same substance, in test [3], the “secretion of GM-CSF” value is ~1 pg/mL, the “secretion of IL-1” value is reported as ~2 pg/mL, the “secretion of IL-4” value is on record as ~2.7 pg/mL and the “secretion of IL-6” value is reported as ~2 pg/mL. For the same substance, in test [3], the “secretion of IL-8” value is ~17,000 pg/mL and the “secretion of TNF-α” value is ~15 pg/mL.

Source of the values: US9868935B2, “Composition and method of stem cells for preservation of cardiac tissue” (CRIOESTAMINAL, SAÚDE E TECNOLOGIA, SA., priority 2012, dated 2018).
